The compounds below were run against human recombinant H-PGDS (Homo sapiens, UniProt O60760) (assay: Fluorescence intensity h-PGDS TBA enzyme assay). Details: Examples up to 622 (and 3a, 3b).
Assay type: biochemical

Sequence of human recombinant H-PGDS (O60760 whole entry): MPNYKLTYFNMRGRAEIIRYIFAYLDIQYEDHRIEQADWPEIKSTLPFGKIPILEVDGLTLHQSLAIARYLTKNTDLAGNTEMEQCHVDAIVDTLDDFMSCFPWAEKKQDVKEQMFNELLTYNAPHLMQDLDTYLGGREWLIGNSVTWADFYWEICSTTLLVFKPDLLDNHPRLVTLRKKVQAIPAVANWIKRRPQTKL

IC50 [nM] | SMILES
1.61 | CCC(COC)n1cnc2c(N3CCC(NC(=O)c4ccc(-c5cccc(F)c5)nc4)CC3)ncnc21 (stereo not shown) [Example 110, 6-(3-Fluorophenyl)-N-(1-{9-[1-(methoxymethyl)propyl]-9H-purin-6-yl}piperidin-4-yl)nicotinamide]
1.62 | N#Cc1ccc(C(=O)c2cccnc2N2CCC(NC(=O)c3ccc(-c4cccc(F)c4)nc3)CC2)cc1 [Example 111, N-{1-[3-(4-Cyanobenzoyl)pyridin-2-yl]piperidin-4-yl}-6-(3-fluorophenyl)nicotinamide]
1.87 | O=C(NC1CCN(c2ncnc3c2ncn3C2CCCC2)CC1)c1ccc(-c2cccc(F)c2)nc1 [Example 112, N-[1-(9-Cyclopentyl-9H-purin-6-yl)piperidin-4-yl]-6-(3-fluorophenyl)nicotinamide]
0.263 | COCCNC(=O)c1ccc(N2CCC(NC(=O)c3ccc(-c4cccc(F)c4)nc3)CC2)nc1 [Example 113, 6-(3-Fluorophenyl)-N-[1-(5-{[(2-methoxyethyl)amino]carbonyl}pyridin-2-yl)piperidin-4-yl]nicotinamide]
2.3 | O=C(NC1CCN(c2ccc(C(=O)N3CCCC3)cn2)CC1)c1ccc(-c2cccc(F)c2)nc1 [Example 114, 6-(3-Fluorophenyl)-N-{1-[5-(pyrrolidin-1-ylcarbonyl)pyridin-2-yl]piperidin-4-yl}nicotinamide]
0.241 | O=C(NC1CCN(c2ncnc3c2ncn3C2CC2)CC1)c1ccc(-c2cccc(F)c2)nc1 [Example 115, N-[1-(9-Cyclopropyl-9H-purin-6-yl)piperidin-4-yl]-6-(3-fluorophenyl)nicotinamide]
2.56 | Cc1cc(N2CCC(NC(=O)c3ccc(-c4cccc(F)c4)nc3)CC2)nc(N2CCCCC2)n1 [Example 116, 6-(3-Fluorophenyl)-N-[1-(6-methyl-2-piperidin-1-ylpyrimidin-4-yl)piperidin-4-yl]nicotinamide]
0.429 | O=C(NC1CCN(c2ncnc3cc(F)ccc23)CC1)c1ccc(-c2cccc(F)c2)nc1 [Example 117, 6-(3-Fluorophenyl)-N-[1-(7-fluoroquinazolin-4-yl)piperidin-4-yl]nicotinamide]
0.89 | CC(C)n1cnc2c(N3CCC(NC(=O)c4ccc(-c5cccc(F)c5)nc4)CC3)ncnc21 [Example 118, 6-(3-Fluorophenyl)-N-[1-(9-isopropyl-9H-purin-6-yl)piperidin-4-yl]nicotinamide]
3.74 | O=C(NC1CCN(c2nccc(-c3ccccc3CCO)n2)CC1)c1ccc(-c2cccc(F)c2)nc1 [Example 119, 6-(3-Fluorophenyl)-N-(1-{4-[2-(2-hydroxyethyl)phenyl]pyrimidin-2-yl}piperidin-4-yl)nicotinamide]
3.49 | CCOC(=O)c1cnc(N2CCC(NC(=O)c3ccc(-c4cccc(F)c4)nc3)CC2)cc1N1CCOCC1 [Example 120, Ethyl 6-[4-({[6-(3-fluorophenyl)pyridin-3-yl]carbonyl}amino)piperidin-1-yl]-4-morpholin-4-ylnicotinate]
1.21 | Cc1nc(N2CCC(NC(=O)c3ccc(-c4cccc(F)c4)nc3)CC2)c(C#N)cc1F [Example 121, N-[1-(3-Cyano-5-fluoro-6-methylpyridin-2-yl)piperidin-4-yl]-6-(3-fluorophenyl)nicotinamide]
0.168 | COc1ccc2c(N3CCC(NC(=O)c4ccc(-c5cccc(F)c5)nc4)CC3)ncnc2c1OC [Example 122, N-[1-(7,8-Dimethoxyquinazolin-4-yl)piperidin-4-yl]-6-(3-fluorophenyl)nicotinamide]
4.66 | COc1cc2c(N3CCC(NC(=O)c4ccc(-c5cccc(F)c5)nc4)CC3)ncnc2c(OC)c1OC [Example 123, 6-(3-Fluorophenyl)-N-[1-(678-trimethoxyquinazolin-4-yl)piperidin-4-yl]nicotinamide]
0.345 | O=C(NC1CCN(c2ncnc3[nH]ccc23)CC1)c1ccc(-c2cccc(F)c2)nc1 [Example 124, 6-(3-fluorophenyl)-N-[1-(7H-pyrrolo[23-d]pyrimidin-4-yl)piperidin-4-yl]nicotinamide]
0.176 | Cn1cnc2c(N3CCC(NC(=O)c4ccc(-c5cccc(F)c5)nc4)CC3)ncnc21 [Example 125, 6-(3-Fluorophenyl)-N-[1-(9-methyl-9H-purin-6-yl)piperidin-4-yl]nicotinamide]
0.656 | N#Cc1cnc(N2CCC(NC(=O)c3ccc(-c4cccc(F)c4)nc3)CC2)nc1N [Example 126, N-[1-(4-Amino-5-cyanopyrimidin-2-yl)piperidin-4-yl]-6-(3-fluorophenyl)nicotinamide]
4.01 | O=C(NC1CCN(c2ncc(Br)cn2)CC1)c1ccc(-c2cccc(F)c2)nc1 [Example 127, N-[1-(5-Bromopyrimidin-2-yl)piperidin-4-yl]-6-(3-fluorophenyl)nicotinamide]
0.687 | O=C(NC1CCN(c2nccc(Nc3cc[nH]n3)n2)CC1)c1ccc(-c2cccc(F)c2)nc1 [Example 128, 6-(3-Fluorophenyl)-N-{1-[4-(1H-pyrazol-3-ylamino)pyrimidin-2-yl]piperidin-4-yl}nicotinamide]
6.24 | O=C(NC1CCN(c2ncnc3[nH]ncc23)CC1)c1ccc(-c2cccc(F)c2)nc1 [Example 129, 6-(3-Fluorophenyl)-N-[1-(1H-pyrazolo[3,4-d]pyrimidin-4-yl)piperidin-4-yl]nicotinamide]
4.57 | COc1cc2nc(N3CCC(NC(=O)c4ccc(-c5cccc(F)c5)nc4)CC3)nc(N)c2cc1OC [Example 130, N-[1-(4-Amino-6,7-dimethoxyquinazolin-2-yl)piperidin-4-yl]-6-(3-fluorophenyl)nicotinamide]
0.463 | Cc1nnc(N2CCC(NC(=O)c3ccc(-c4cccc(F)c4)nc3)CC2)c2ccccc12 [Example 131, 6-(3-Fluorophenyl)-N-[1-(4-methylphthalazin-1-yl)piperidin-4-yl]nicotinamide]
0.365 | Nc1nc(N2CCC(NC(=O)c3ccc(-c4cccc(F)c4)nc3)CC2)c2nc[nH]c2n1 [Example 132, N-[1-(2-Amino-9H-purin-6-yl)piperidin-4-yl]-6-(3-fluorophenyl)nicotinamide]
0.395 | Cc1nc(N)cc(N2CCC(NC(=O)c3ccc(-c4cccc(F)c4)nc3)CC2)n1 [Example 133, N-[1-(6-Amino-2-methylpyrimidin-4-yl)piperidin-4-yl]-6-(3-fluorophenyl)nicotinamide]
1.81 | Cc1cnc(C)c(N2CCC(NC(=O)c3ccc(-c4cccc(F)c4)nc3)CC2)n1 [Example 134, N-[1-(3,6-Dimethylpyrazin-2-yl)piperidin-4-yl]-6-(3-fluorophenyl)nicotinamide]
1.47 | O=C(NC1CCN(c2ncccc2C(F)(F)F)CC1)c1ccc(-c2cccc(F)c2)nc1 [Example 135, 6-(3-Fluorophenyl)-N-{1-[3-(trifluoromethyl)pyridin-2-yl]piperidin-4-yl}nicotinamide]
5.12 | O=C(NC1CCN(c2nccc(C(F)(F)F)n2)CC1)c1ccc(-c2cccc(F)c2)nc1 [Example 136, 6-(3-Fluorophenyl)-N-{1-[4-(trifluoromethyl)pyrimidin-2-yl]piperidin-4-yl}nicotinamide]
1.41 | O=C(NC1CCN(c2ccc(Cl)cn2)CC1)c1ccc(-c2cccc(F)c2)nc1 [Example 137, N-[1-(5-Chloropyridin-2-yl)piperidin-4-yl]-6-(3-fluorophenyl)nicotinamide]
